target: T1, human TREK-1 (Homo sapiens, UniProt O95069); test: thallium flux assay (TREK1 activation normalized to BL-1249); format: cell-based; settings: CHO-K1, read-out: TREK1 activation RBL-1249 (%)
T1 construct: expressed in transfected cells
T1 sequence (O95069 1-426): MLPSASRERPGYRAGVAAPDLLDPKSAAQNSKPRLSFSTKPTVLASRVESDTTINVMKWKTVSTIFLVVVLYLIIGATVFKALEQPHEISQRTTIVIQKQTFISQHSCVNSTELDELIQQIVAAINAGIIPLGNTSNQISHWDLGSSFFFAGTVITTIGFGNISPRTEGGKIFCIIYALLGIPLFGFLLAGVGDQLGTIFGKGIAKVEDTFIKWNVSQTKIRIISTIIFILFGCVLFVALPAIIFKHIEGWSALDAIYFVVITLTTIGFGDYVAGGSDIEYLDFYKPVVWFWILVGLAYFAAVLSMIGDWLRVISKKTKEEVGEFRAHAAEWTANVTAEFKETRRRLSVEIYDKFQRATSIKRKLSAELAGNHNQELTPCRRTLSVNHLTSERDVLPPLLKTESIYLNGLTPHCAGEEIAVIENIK
Procedure: The term “thallium flux assay” herein refers to a fluorescence-based assay used to monitor the activity of TREK channels. Thallium is a congener of potassium that readily fluxes through the pore of TREK channels. Thallium flux is measured using a commercially available, thallium-sensitive fluorescent dye called Thallos. The detail method is described below.
Method 1 (Thallium Flux Assay);
CHO-K1 cells stably expressing human TREK-1 or HEK293 cells stably expressing human TREK-2 are plated in 384-well plates, cultured overnight, loaded with Thallos dye the following day, treated with test compounds for 10 min, and then treated with thallium stimulus buffer to initiate thallium flux. The change in fluorescence at 25 seconds after thallium addition is normalized to baseline fluorescence (fluorescent intensity at 25 sec after Tl^+ addition)/(average of fluorescent intensity at pre-read).

SMILES	activation at 10 µM [%]
O=C(NCc1ccc(OC(F)(F)F)cc1Cl)c1ccc2ncnn2c1 [Example 9-2, N-[[2-chloro-4-(trifluoromethoxy)phenyl]methyl]-[1,2,4]triazolo[1,5-a]pyridine-6-carboxamide]	106

same assay, conditions: concentration of Example compound 10 μM; normalized to 10 μM BL-1249; CHO-K1 cells stably expressing human TREK-1

SMILES	TREK1 activation RBL-1249 (%)
O=C(NCc1ccc(OC(F)(F)F)cc1)c1ccc(-c2nccs2)cc1 [Example 2-9, 4-(1,3-thiazol-2-yl)-N-+4-(trifluoromethoxy)benzyl+benzamide]	25
COc1cc(OC(F)(F)F)ccc1CNC(=O)c1ccc(-c2ccccn2)nc1 [Example 2-29]	51
O=C(NCc1ccc(OC(F)(F)F)cc1Cl)c1cnc2ccnn2c1 [Example 9-8, N-[[2-chloro-4-(trifluoromethoxy)phenyl]methyl]pyrazo1o[1,5-a]pyrimidine-6-carboxamide]	106
Cc1nnc2cc(C(=O)NCc3ccc(OC(F)(F)F)cc3Cl)ccn12 [Example 9-11]	126

same assay, conditions: concentration of Example compound 10 μM; normalized to 10 μM BL-1249; CHO-K1 cells stably expressing human TREK-1; read-out: TREK1 activation RBL-1249 (%)

SMILES	activation at 10 µM [%]
O=C(NCc1ccc(OC(F)(F)F)cc1)c1ccc(-c2cnco2)cc1 [Example 2-6, 4-(1,3-oxazol-5-yl)-N-[4-(trifluoromethoxy)benzyl]benzamide]	32
O=C(NCc1ccc(OC(F)(F)F)cc1)c1ccc(-c2cnc[nH]2)cc1 [Example 2-10, 4-(1H-imidazol-5-yl)-N-[4-(trifluoromethoxy)benzyl]benzamide]	46
O=C(NCc1ccc(OC(F)(F)F)cc1)c1ccc(-c2nnco2)cc1 [Example 2-12, 4-(1,3,4-oxadiazol-2-yl)-N-[4-(trifluoromethoxy)benzyl]benzamide]	29
O=C(NCc1ccc(OC(F)(F)F)cc1F)c1ccc(-n2cncn2)cc1 [Example 2-16, N-[2-fluoro-4-(trifluoromethoxy)benzyl]-4-(1H-1,2,4-triazol-1-yl)benzamide]	46
O=C(NCc1ccc(SC(F)(F)F)cc1)c1ccc(-n2cncn2)cc1 [Example 2-18, 4-(1H-1,2,4-triazol-1-yl)-N-{4-[(trifluoromethyl)thio]benzyl}benzamide]	39
O=C(NCc1ccc(OC(F)(F)F)c(F)c1)c1ccc(-c2nc[nH]n2)cc1 [Example 2-22, N-[3-fluoro-4-(trifluoromethoxy)benzyl]-4-(1H-1,2,4-triazol-3-yl)benzamide]	66
O=C(NCc1ccc(OC(F)(F)F)cc1F)c1ccc(-c2ncn[nH]2)cc1 [Example 2-24, N-[2-fluoro-4-(trifluoromethoxy)benzyl]-4-(1H-1,2,4-triazol-5-yl)benzamide]	69
COc1cc(OC(F)(F)F)ccc1CNC(=O)c1ccc(-c2nc[nH]n2)cc1 [Example 2-25, N-[2-methoxy-4-(trifluoromethoxy)benzyl]-4-(1H-1,2,4-triazol-3-yl)benzamide]	48
O=C(NCc1ccc(C(F)(F)F)cc1Cl)c1ccc(-c2nc[nH]n2)cc1 [Example 2-26, N-[2-chloro-4-(trifluoromethyl)benzyl]-4-(1H-1,2,4-triazol-3-yl)benzamide]	76
O=C(NCc1ccc(C(F)(F)F)cc1Cl)c1ccc(-c2cccnc2)cc1 [Example 2-28, N-[2-chloro-4-(trifluoromethyl)benzyl]-4-(3-pyridinyl)benzamide]	22
COc1cc(OC(F)(F)F)ccc1CNC(=O)c1ccc(-n2cncn2)nc1 [Example 2-30, N-[2-methoxy-4-(trifluoromethoxy)benzyl]-6-(1H-1,2,4-triazol-1-yl)nicotinamide]	42
Cc1cc(OC(F)(F)F)ccc1CNC(=O)c1ccc(-c2ncn[nH]2)cc1 [Example 2-34, N-[2-methyl-4-(trifluoromethoxy)benzyl]-4-(1H-1,2,4-triazol-5-yl)benzamide]	80
O=C(NCc1ccc(OC(F)(F)F)cc1F)c1ccc(-c2ncc[nH]2)cc1 [Example 2-36, N-[2-fluoro-4-(trifluoromethoxy)benzyl]-4-(1H-imidazol-2-yl)benzamide]	73
Cc1cc(OC(F)(F)F)ccc1CNC(=O)c1ccc(-n2cccn2)cc1 [Example 2-38, N-[2-methyl-4-(trifluoromethoxy)benzyl]-4-(1H-pyrazol-1-yl)benzamide]	55
COc1cc(OC(F)(F)F)ccc1CNC(=O)c1ccc(-n2cccn2)cc1 [Example 2-41, N-[2-methoxy-4-(trifluoromethoxy)benzyl]-4-(1H-pyrazol-1-yl)benzamide]	63
O=C(NCc1ccc(OC(F)(F)F)cc1)c1ccc(-c2ncccn2)cc1 [Example 2-47, 4-(2-pyrimidinyl)-N-[4-(trifluoromethoxy)benzyl]benzamide]	44
O=C(NCc1ccc(Br)cc1Cl)c1ccc(-c2ncn[nH]2)cc1 [Example 2-49, N-(4-bromo-2-chlorobenzyl)-4-(1H-1,2,4-triazol-5-yl)benzamide]	84
O=C(NCc1ccc(OC(F)(F)F)cc1Cl)c1ccn2cnnc2c1 [Example 9, N-[[2-Chloro-4-(trifluoromethoxy)phenyl]methyl]-[1,2,4]triazolo[4,3-a]pyridine-7-carboxamide]	99

Other lines, results leading:

activation at 10 µM [%]	SMILES
67	Cc1nnc2cc(C(=O)NCc3ccc(OC(F)(F)F)c(F)c3)ccn12 [Example 3-3, N-[3-fluoro-4-(trifluoromethoxy)benzyl]-3-methyl[1,2,4]triazolo[4,3-a]pyridine-7-carboxamide]
89	Cc1nc2ccc(C(=O)NCc3ccc(OC(F)(F)F)cc3C)cn2n1 [Example 3-4, 2-methyl-N-[2-methyl-4-(trifluoromethoxy)benzyl][1,2,4]triazolo[1,5-a]pyridine-6-carboxamide]
89	Cc1cc(OC(F)(F)F)ccc1CNC(=O)c1ccn2c(C)nnc2c1 [Example 3-5, 3-methyl-N-[2-methyl-4-(trifluoromethoxy)benzyl][1,2,4]triazolo[4,3-a]pyridine-7-carboxamide]
87	Cn1nnc2cc(C(=O)NCc3ccc(OC(F)(F)F)cc3Cl)ccc21 [Example 9-4, N-[[2-chloro-4-(trifluoromethoxy)phenyl]methyl]-1-methylbenzotriazole-5-carboxamide]
125	O=C(NCc1ccc(OC(F)(F)F)cc1Cl)c1ccc2[nH]nnc2c1 [Example 9-7, N-[[2-chloro-4-(trifluoromethoxy)phenyl]methyl]-1H-benzotriazole-5-carboxamide]

same assay, conditions: concentration of Example compound 30 μM; normalized to 10 μM BL-1249; CHO-K1 cells stably expressing human TREK-1; read-out: TREK1 activation RBL-1249 (%)

SMILES	activation at 30 µM [%]
O=C(NCc1ccc(OC(F)(F)F)cc1)c1nc(-c2ccccn2)cs1 [Example 2-32, 4-(2-pyridinyl)-N-[4-(trifluoromethoxy)benzyl]-1,3-thiazole-2-carboxamide]	38
O=C(NCc1ccc(C(F)(F)F)cn1)c1ccc(-n2cccn2)cc1 [Example 2-37, 4-(1H-pyrazol-1-yl)-N-{[5-(trifluoromethyl)-2-pyridinyl]methyl}benzamide]	24
COc1cc(OC(F)(F)F)ccc1CNC(=O)c1ccc(-c2noc(=O)[nH]2)cc1 [Example 4, N-[2-Methoxy-4-(trifluoromethoxy)benzyl]-4-(5-oxo-4,5-dihydro-1,2,4-oxadiazol-3-yl)benzamide]	77
COc1cc(OC(F)(F)F)ccc1CNC(=O)c1ccc(-c2nnn[nH]2)cc1 [Example 5, N-[2-Methoxy-4-(trifluoromethoxy)benzyl]-4-(1H-tetrazol-5-yl)benzamide]	79
O=C(Cc1ccc(OC(F)(F)F)cc1F)Nc1ccc2ncnn2c1 [Example 6, 2-[2-Fluoro-4-(trifluoromethoxy)phenyl]-N-([1,2,4]triazolo[1,5-a]pyridin-6-yl)acetamide]	19
O=C(NCc1ccc(Cl)cc1Cl)c1ccc(CN2CCOCC2)cc1 [Example 7, N-(2,4-Dichlorobenzyl)-4-(4-morpholinomethyl)benzamide]	38

Next, values leading:

activation at 30 µM [%]	SMILES
41	Cc1cc(C(=O)NCc2ccc(Br)cc2Cl)cn2ncnc12 [Example 3-2, N-(4-bromo-2-chlorobenzyl)-8-methyl[1,2,4]triazolo[1,5-a]pyridine-6-carboxamide]
34	CS(=O)(=O)N1CCOc2cc(C(=O)NCc3ccc(Br)cc3Cl)ccc21 [Example 3-10, N-(4-bromo-2-chlorobenzyl)-4-(methylsulfonyl)-3,4-dihydro-2H-1,4-benzoxazine-7-carboxamide]
48	COc1cc(OC(F)(F)F)ccc1CNC(=O)c1ccc(NS(C)(=O)=O)nc1 [Example 8-2, N-[2-methoxy-4-(trifluoromethoxy)benzyl]-6-[(methylsulfonyl)amino]nicotinamide]

Reference: patent US11851428B2, “Activator of TREK (TWIK RElated K+channels) channels” (ONO PHARMACEUTICAL CO., LTD., priority 2016, dated 2023)
